Read-outs that look alike come from different tables or passages of the source.
Assays:
NEU3 = target: T1, NEU3 (Homo sapiens, UniProt Q9UQ49); assay: Inhibition assay, 4MU-NANA cleavage, NEU3; assay type: biochemical
T1 construct: MBP (N); made in house; host or cells: E. coli
T1 sequence (Q9UQ49 1-428): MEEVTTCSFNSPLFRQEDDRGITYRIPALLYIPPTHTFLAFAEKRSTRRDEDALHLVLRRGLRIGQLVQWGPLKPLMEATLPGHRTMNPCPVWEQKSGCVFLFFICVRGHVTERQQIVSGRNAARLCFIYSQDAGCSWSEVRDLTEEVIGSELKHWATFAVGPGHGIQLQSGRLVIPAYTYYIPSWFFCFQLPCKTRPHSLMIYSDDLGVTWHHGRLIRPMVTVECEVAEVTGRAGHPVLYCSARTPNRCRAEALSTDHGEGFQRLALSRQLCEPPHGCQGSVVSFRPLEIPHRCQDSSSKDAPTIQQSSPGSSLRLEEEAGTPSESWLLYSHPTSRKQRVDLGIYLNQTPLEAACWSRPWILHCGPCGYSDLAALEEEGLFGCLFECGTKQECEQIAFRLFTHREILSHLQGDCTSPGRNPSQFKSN
Method: (§1) 4MU-NANA was then added to the mixture, making the final concentration of 4MU-NANA as 50 μM and the total volume of the reaction mixture as 20 μL. […] Assays were performed with duplicates for each point and IC50 was obtained by plotting the data with Graphpad™ Prism 5.0.

NEU4 = target: T2, NEU4 (Homo sapiens, UniProt Q8WWR8); assay: Inhibition assay, 4MU-NANA cleavage, NEU4; assay type: biochemical
T2 construct: GST; made in house; host or cells: E. coli
T2 sequence (Q8WWR8 1-484): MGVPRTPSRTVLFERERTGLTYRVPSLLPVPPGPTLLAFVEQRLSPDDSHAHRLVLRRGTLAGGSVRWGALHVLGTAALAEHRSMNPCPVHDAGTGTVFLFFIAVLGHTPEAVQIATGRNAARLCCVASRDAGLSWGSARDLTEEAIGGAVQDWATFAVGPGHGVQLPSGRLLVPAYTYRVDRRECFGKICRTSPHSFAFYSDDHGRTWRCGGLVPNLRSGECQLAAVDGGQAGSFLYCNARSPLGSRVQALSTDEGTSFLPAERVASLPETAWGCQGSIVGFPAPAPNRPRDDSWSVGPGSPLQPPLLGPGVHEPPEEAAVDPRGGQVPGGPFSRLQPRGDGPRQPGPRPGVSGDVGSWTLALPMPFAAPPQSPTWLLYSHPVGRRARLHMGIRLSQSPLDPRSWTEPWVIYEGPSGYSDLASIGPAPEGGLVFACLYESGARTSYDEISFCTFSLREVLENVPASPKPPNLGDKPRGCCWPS
Method: as §1

NEU1 = target: T3, NEU1 (Homo sapiens, UniProt Q99519); assay: Inhibition assay, 4MU-NANA cleavage, NEU1; assay type: biochemical
T3 construct: His; made in house; host or cells: HEK293 cells (cell lysate, unpurified)
Method: as §1

NEU1, NEU2, NEU3, NEU4 = assay: Target isoenzyme and selectivity from IC50 data of Table I; assay type: biochemical, human; details: from IC50 values of Table I
NEU2 = target: T4, NEU2 (Homo sapiens, UniProt Q9Y3R4); assay: Inhibition assay, 4MU-NANA cleavage, NEU2; assay type: biochemical; details: 4MU-NANA as the substrate; pH 5.5
T4 construct: MBP (N); made in house; host or cells: E. coli
T4 sequence (Q9Y3R4 whole entry): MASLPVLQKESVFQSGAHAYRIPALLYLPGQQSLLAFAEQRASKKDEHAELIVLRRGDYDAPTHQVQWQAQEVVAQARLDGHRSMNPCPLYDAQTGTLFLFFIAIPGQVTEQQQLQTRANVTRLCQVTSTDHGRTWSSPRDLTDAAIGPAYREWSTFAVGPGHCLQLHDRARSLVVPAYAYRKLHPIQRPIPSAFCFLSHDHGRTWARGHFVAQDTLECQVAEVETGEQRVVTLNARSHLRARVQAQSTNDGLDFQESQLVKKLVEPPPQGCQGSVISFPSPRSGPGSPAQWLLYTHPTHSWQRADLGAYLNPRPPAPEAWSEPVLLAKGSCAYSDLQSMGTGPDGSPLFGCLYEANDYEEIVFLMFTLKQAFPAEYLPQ
Method: as §1

[1] = compounds of Table I, read-out: IC50 against neu3
[2] = compounds of Table I, read-out: IC50 against neu4
[3] = 4MU-NANA as the substrate, pH 4.5, read-out: IC50 NEU3
[4] = 4MU-NANA as the substrate, pH 4.5, read-out: IC50 NEU1
[5] = 4MU-NANA as the substrate, pH 4.5, read-out: IC50 NEU4

SMILES	IC50 (NEU4; [2]) [µM]	IC50 (NEU3; [3]) [µM]	IC50 (NEU1; [4]) [µM]	also measured
CC(=O)Nc1cccc(C(=O)NC[C@@H](O)[C@@H](O)[C@@H]2OC(C(=O)O)=C[C@H](O)[C@H]2NC(C)=O)c1 [compound 60, 5-Acetamido-9-(3-acetamido)benzamido-2,6-anhydro-3,5-dideoxy-d-glycero-d-galacto-non-2-enonic acid]				IC50 (NEU3; [1]): ≤ 10 µM
COc1ccc(-c2cn(C[C@@H](O)[C@@H](O)[C@@H]3OC(C(=O)O)=C[C@H](O)[C@H]3NC(C)=O)nn2)cc1 [7e]	≤ 3			
CC(=O)N[C@@H]1C(O)C=C(C(=O)O)OC1C(O)C(O)Cn1cc(-c2ccc(NC(=O)c3ccccc3)cc2)nn1 (stereo partly shown) [compound 27]	≤ 10			
CC(=O)N[C@H]1[C@H]([C@H](O)[C@H](O)Cn2cc(-c3ccc(C(F)(F)F)cc3)nn2)OC(C(=O)O)=C[C@@H]1O [7g]	≤ 10			
CCCCCc1cn(C[C@@H](O)[C@@H](O)[C@@H]2OC(C(=O)O)=C[C@H](O)[C@H]2NC(C)=O)nn1 [compound 63, 5-Acetamido-9-(4-pentyl)triazolyl-2,6-anhydro-3,5-dideoxy-d-glycero-d-galacto-non-2-enonic acid]	≤ 3			IC50 (NEU3; [1]): ≤ 10 µM
CC(=O)Nc1ccc(C(=O)NC[C@@H](O)[C@@H](O)[C@@H]2OC(C(=O)O)=C[C@H](O)[C@H]2NC(C)=O)cc1 [compound 58, 5-Acetamido-9-(4-acetamido)benzamido-2,6-anhydro-3,5-dideoxy-d-glycero-d-galacto-non-2-enonic acid]				IC50 (NEU3; [1]): ≤ 10 µM
CC(=O)NC1C(NC(=O)NCCC(=O)O)C=C(C(=O)O)OC1C(O)C(O)Cn1cc(-c2ccc(C(=O)O)cc2)nn1 (stereo not shown) [compound 18]		> 500	> 500	
CCCCCC(=O)N[C@H]1[C@H]([C@H](O)[C@H](O)CNC(C)=O)OC(C(=O)O)=C[C@@H]1O [compound 68, 5-Hexanamido-9-acetamido-2,6-anhydro-3,5-dideoxy-D-glycero-D-galacto-non-2-enonic acid]		> 500		
CCC(=O)N[C@H]1C=C(C(=O)O)O[C@@H]([C@H](O)[C@H](O)CO)[C@@H]1NC(C)=O [25a, 5-Acetamido-2,6-anhydro-4-propionamido-3,4,5-trideoxy-D-glycero-D-galacto-non-2-enonic acid]		> 500	> 500	IC50 (NEU4; [5]): > 500 µM
CC(=O)N[C@@H]1C(N=[N+]=[N-])C=C(C(=O)O)OC1CNOCc1ccccc1 (stereo in doubt) [5c]				IC50 (NEU3; [1]): < 1 µM
CCCCC(=O)NC[C@@H](O)[C@@H](O)[C@@H]1OC(C(=O)O)=C[C@H](O)[C@H]1NC(=O)CC [compound 65, 5-Propionamido-9-pentanamido-2,6-anhydro-3,5-dideoxy-D-glycero-D-galacto-non-2-enonic acid]		> 500		
CC(=O)N[C@H]1[C@H]([C@H](O)[C@H](O)Cn2cc(-c3ccc(F)cc3)nn2)OC(C(=O)O)=C[C@@H]1O [7f]	≤ 3			Selectivity (NEU1, NEU2, NEU3, NEU4): 10
CC(=O)N[C@@H]1C(O)C=C(C(=O)O)OC1C(O)C(O)Cn1cc(-c2ccc(-c3ccccc3)cc2)nn1 (stereo partly shown) [7i]	< 1			
CCCCCC(=O)N[C@H]1[C@H]([C@H](O)[C@H](O)CNC(=O)CC)OC(C(=O)O)=C[C@@H]1O [compound 69, 5-Hexanamido-9-propionamido-2,6-anhydro-3,5-dideoxy-d-glycero-d-galacto-non-2-enonic acid]		> 500		
CC(=O)NC1C(N)C=C(C(=O)O)OC1C(O)C(O)Cn1cc(-c2ccc(C(=O)O)cc2)nn1 (stereo not shown) [compound 15]		> 500	> 500	IC50 (NEU2): > 500 µM; IC50 (NEU4; [5]): > 500 µM
CCCCCC(=O)N[C@H]1[C@H]([C@H](O)[C@H](O)CNC(=O)CCC)OC(C(=O)O)=C[C@@H]1O [compound 70, 5-Hexanamido-9-butanamido-2,6-anhydro-3,5-dideoxy-D-glycero-D-galacto-non-2-enonic acid]		> 500		IC50 (NEU4; [5]): > 500 µM
CC(=O)N[C@@H]1C(O)C=C(C(=O)O)OC1C(O)C(O)Cn1cc(CNC(=O)c2ccccc2)nn1 (stereo partly shown) [compound 26]	≤ 3			
CCCC(=O)N[C@H]1[C@H]([C@H](O)[C@H](O)CO)OC(C(=O)O)=C[C@@H]1O [compound 30, 5-Butyramido-2,6-anhydro-3,5-dideoxy-D-glycero-D-galacto-non-2-enonic acid]	≤ 10	15 ± 2	8.4 ± 0.5	IC50 (NEU1; compounds of Table I, read-out: IC50 against neu1): ≤ 10 µM; IC50 (NEU4; [5]): 8.4 ± 0.4 µM
CC(=O)N[C@@H]1C(O)C=C(C(=O)O)OC1C(O)C(O)Cn1cc(-c2ccc(C(=O)O)cc2)nn1 (stereo partly shown) [7h]	≤ 3			
CC(=O)N[C@H]1C(C(O)C(O)Cn2cc(CO)nn2)OC(C(=O)O)=C[C@H]1O (stereo partly shown) [compound 28, C9-4HMT-DANA]		80 ± 10	> 500	IC50 (NEU3; [1]): ≤ 100 µM
[N-]=[N+]=NCC(=O)N[C@@H]1C(O)C=C(C(=O)O)OC1C(O)C(O)CO (stereo partly drawn) [compound 40, 5-(N-2-azidoacetyl)-2,3,5-trideoxy-D-glycero-D-galacto-2-nonulopyranosonic acid]	≤ 10			
CCCCC(C)C(=O)N[C@H]1[C@H]([C@H](O)[C@H](O)CNC(C)=O)OC(C(=O)O)=C[C@@H]1O (mixture of isomers) [compound 74, 5-(2-Methyl)hexanamido(S/R)-9-acetanamido-2,6-anhydro-3,5-dideoxy-d-glycero-d-galacto-non-2-enonic acid]			0.42 ± 0.07	
CCCCCC(=O)NC[C@@H](O)[C@@H](O)[C@@H]1OC(C(=O)O)=C[C@H](O)[C@H]1NC(=O)CCCCC [compound 64, 5-Hexanamido-9-hexanamido-2,6-anhydro-3,5-dideoxy-d-glycero-d-galacto-non-2-enonic acid]		> 500		IC50 (NEU4; [5]): > 500 µM
CC(=O)N[C@H]1[C@H]([C@H](O)[C@H](O)Cn2cc(-c3ccc(C(=O)O)cc3)nn2)OC(C(=O)O)=C[C@@H]1N=[N+]=[N-] [compound 13]			> 500	IC50 (NEU2): > 500 µM; Selectivity (NEU1, NEU2, NEU3, NEU4): 20
CC(=O)N[C@H]1[C@H]([C@H](O)[C@H](O)CO)OC(C(=O)O)=C[C@@H]1NC(=O)C1CCC1 [25d, 5-Acetamido-2,6-anhydro-4-cyclobutanecarboxamido-3,4,5-trideoxy-D-glycero-D-galacto-non-2-enonic acid]		> 500	> 500	IC50 (NEU4; [5]): > 500 µM
CCCCC(C)C(=O)N[C@H]1[C@H]([C@H](O)[C@H](O)CO)OC(C(=O)O)=C[C@@H]1O (mixture of isomers) [compound 72, 5-(2-Methyl)hexanamido(S/R)-2,6-anhydro-3,5-dideoxy-d-glycero-d-galacto-non-2-enonic acid]			0.55 ± 0.07	
CCCCC(=O)N[C@H]1C=C(C(=O)O)O[C@@H]([C@H](O)[C@H](O)CO)[C@@H]1NC(C)=O [25b, 5-Acetamido-2,6-anhydro-4-pentanamido-3,4,5-trideoxy-D-glycero-D-galacto-non-2-enonic acid]		> 500	> 500	IC50 (NEU4; [5]): > 500 µM
CC(=O)N[C@H]1[C@H]([C@H](O)[C@H](O)CO)OC(C(=O)O)=C[C@@H]1NC(=O)C1CC1 [25c, 5-Acetamido-2,6-anhydro-4-cyclopropanecarboxamido-3,4,5-trideoxy-D-glycero-D-galacto-non-2-enonic acid]		> 500	> 500	IC50 (NEU4; [5]): > 500 µM
